From the NIST ThermoML archive (doi:10.1016/j.fluid.2013.08.029)
± gives the expanded uncertainty stated by the source.

Test: xn = mol fraction of the nth substance listed
Settings: 101 kPa, Liquid; for speed of sound: Sing-around technique in a fixed-path interferometer; for mass density: Vibrating tube method

## CCCCn1cc[n+](C)c1C.F[B-](F)(F)F [1-butyl-2,3-dimethylimidazolium tetrafluoroborate] + OCCO
288.15 K, x1 = 0.0698
  speed of sound: 1674 ± 2.2 m/s
  mass density: 1138.16 ± 0.17 kg/m3
288.15 K, x1 = 0.1114
  speed of sound: 1668.1 ± 2.2 m/s
  mass density: 1148.04 ± 0.17 kg/m3
288.15 K, x1 = 0.219
  speed of sound: 1661.9 ± 2.2 m/s
  mass density: 1163.09 ± 0.17 kg/m3
288.15 K, x1 = 0.3157
  speed of sound: 1657 ± 2.2 m/s
  mass density: 1172.24 ± 0.17 kg/m3
288.15 K, x1 = 0.4167
  speed of sound: 1653.7 ± 2.2 m/s
  mass density: 1177.8 ± 0.17 kg/m3
288.15 K, x1 = 0.5153
  speed of sound: 1652.5 ± 2.2 m/s
  mass density: 1181.99 ± 0.17 kg/m3
288.15 K, x1 = 0.6157
  speed of sound: 1653.1 ± 2.2 m/s
  mass density: 1185.96 ± 0.16 kg/m3
288.15 K, x1 = 0.7042
  speed of sound: 1654.9 ± 2.2 m/s
  mass density: 1189.36 ± 0.16 kg/m3
288.15 K, x1 = 0.8028
  speed of sound: 1658 ± 2.2 m/s
  mass density: 1192.88 ± 0.16 kg/m3
288.15 K, x1 = 0.9065
  speed of sound: 1662.1 ± 2.1 m/s
  mass density: 1196.58 ± 0.15 kg/m3
293.15 K, x1 = 0.0698
  speed of sound: 1661 ± 2.2 m/s
  mass density: 1134.55 ± 0.17 kg/m3
293.15 K, x1 = 0.1114
  speed of sound: 1655.6 ± 2.2 m/s
  mass density: 1144.09 ± 0.17 kg/m3
293.15 K, x1 = 0.219
  speed of sound: 1649.5 ± 2.2 m/s
  mass density: 1159.15 ± 0.17 kg/m3
293.15 K, x1 = 0.3157
  speed of sound: 1643.8 ± 2.2 m/s
  mass density: 1167.38 ± 0.17 kg/m3
293.15 K, x1 = 0.4167
  speed of sound: 1639.4 ± 2.2 m/s
  mass density: 1172.09 ± 0.17 kg/m3
293.15 K, x1 = 0.5153
  speed of sound: 1638 ± 2.2 m/s
  mass density: 1176.32 ± 0.16 kg/m3
293.15 K, x1 = 0.6157
  speed of sound: 1638.7 ± 2.2 m/s
  mass density: 1180.66 ± 0.16 kg/m3
293.15 K, x1 = 0.7042
  speed of sound: 1641.5 ± 2.2 m/s
  mass density: 1184.47 ± 0.16 kg/m3
293.15 K, x1 = 0.8028
  speed of sound: 1645.2 ± 2.2 m/s
  mass density: 1188.27 ± 0.15 kg/m3
293.15 K, x1 = 0.9065
  speed of sound: 1649.9 ± 2.1 m/s
  mass density: 1192.09 ± 0.15 kg/m3
298.15 K, x1 = 0.0698
  speed of sound: 1648.8 ± 2.2 m/s
  mass density: 1130.93 ± 0.17 kg/m3
298.15 K, x1 = 0.1114
  speed of sound: 1643.3 ± 2.2 m/s
  mass density: 1140.43 ± 0.17 kg/m3
298.15 K, x1 = 0.219
  speed of sound: 1636.8 ± 2.2 m/s
  mass density: 1155.3 ± 0.17 kg/m3
298.15 K, x1 = 0.3157
  speed of sound: 1631.4 ± 2.2 m/s
  mass density: 1162.95 ± 0.17 kg/m3
298.15 K, x1 = 0.4167
  speed of sound: 1628.2 ± 2.2 m/s
  mass density: 1167.85 ± 0.17 kg/m3
298.15 K, x1 = 0.5153
  speed of sound: 1627.1 ± 2.2 m/s
  mass density: 1171.8 ± 0.16 kg/m3
298.15 K, x1 = 0.6157
  speed of sound: 1627.5 ± 2.2 m/s
  mass density: 1176.73 ± 0.16 kg/m3
298.15 K, x1 = 0.7042
  speed of sound: 1630.3 ± 2.2 m/s
  mass density: 1180.56 ± 0.16 kg/m3
298.15 K, x1 = 0.8028
  speed of sound: 1633.5 ± 2.1 m/s
  mass density: 1184.59 ± 0.15 kg/m3
298.15 K, x1 = 0.9065
  speed of sound: 1637.7 ± 2.1 m/s
  mass density: 1188.59 ± 0.15 kg/m3
303.15 K, x1 = 0.0698
  speed of sound: 1637 ± 2.2 m/s
  mass density: 1127.3 ± 0.17 kg/m3
303.15 K, x1 = 0.1114
  speed of sound: 1631.5 ± 2.2 m/s
  mass density: 1136.79 ± 0.17 kg/m3
303.15 K, x1 = 0.219
  speed of sound: 1624.4 ± 2.2 m/s
  mass density: 1151.47 ± 0.17 kg/m3
303.15 K, x1 = 0.3157
  speed of sound: 1619.7 ± 2.2 m/s
  mass density: 1158.29 ± 0.16 kg/m3
303.15 K, x1 = 0.4167
  speed of sound: 1616.6 ± 2.2 m/s
  mass density: 1162.58 ± 0.16 kg/m3
303.15 K, x1 = 0.5153
  speed of sound: 1615.5 ± 2.2 m/s
  mass density: 1166.36 ± 0.16 kg/m3
303.15 K, x1 = 0.6157
  speed of sound: 1616.5 ± 2.2 m/s
  mass density: 1171.53 ± 0.16 kg/m3
303.15 K, x1 = 0.7042
  speed of sound: 1618.8 ± 2.2 m/s
  mass density: 1176.14 ± 0.15 kg/m3
303.15 K, x1 = 0.8028
  speed of sound: 1621.7 ± 2.1 m/s
  mass density: 1180.73 ± 0.15 kg/m3
303.15 K, x1 = 0.9065
  speed of sound: 1625.7 ± 2.1 m/s
  mass density: 1185.16 ± 0.15 kg/m3
308.15 K, x1 = 0.0698
  speed of sound: 1625.3 ± 2.2 m/s
  mass density: 1123.65 ± 0.16 kg/m3
308.15 K, x1 = 0.1114
  speed of sound: 1619.4 ± 2.2 m/s
  mass density: 1133.19 ± 0.17 kg/m3
308.15 K, x1 = 0.219
  speed of sound: 1612.2 ± 2.2 m/s
  mass density: 1147.66 ± 0.17 kg/m3
308.15 K, x1 = 0.3157
  speed of sound: 1607.7 ± 2.2 m/s
  mass density: 1154.93 ± 0.16 kg/m3
308.15 K, x1 = 0.4167
  speed of sound: 1604.7 ± 2.2 m/s
  mass density: 1158.22 ± 0.16 kg/m3
308.15 K, x1 = 0.5153
  speed of sound: 1604.2 ± 2.2 m/s
  mass density: 1161.45 ± 0.16 kg/m3
308.15 K, x1 = 0.6157
  speed of sound: 1605 ± 2.2 m/s
  mass density: 1167.01 ± 0.16 kg/m3
308.15 K, x1 = 0.7042
  speed of sound: 1607.4 ± 2.1 m/s
  mass density: 1172.28 ± 0.15 kg/m3
308.15 K, x1 = 0.8028
  speed of sound: 1610.5 ± 2.1 m/s
  mass density: 1177.55 ± 0.15 kg/m3
308.15 K, x1 = 0.9065
  speed of sound: 1613.7 ± 2.1 m/s
  mass density: 1182.72 ± 0.15 kg/m3
313.15 K, x1 = 0.0698
  speed of sound: 1613.8 ± 2.2 m/s
  mass density: 1120 ± 0.16 kg/m3
313.15 K, x1 = 0.1114
  speed of sound: 1607.9 ± 2.2 m/s
  mass density: 1129.53 ± 0.16 kg/m3
313.15 K, x1 = 0.219
  speed of sound: 1600 ± 2.2 m/s
  mass density: 1143.87 ± 0.17 kg/m3
313.15 K, x1 = 0.3157
  speed of sound: 1595.7 ± 2.2 m/s
  mass density: 1150.95 ± 0.16 kg/m3
313.15 K, x1 = 0.4167
  speed of sound: 1592.9 ± 2.2 m/s
  mass density: 1154.7 ± 0.16 kg/m3
313.15 K, x1 = 0.5153
  speed of sound: 1592.8 ± 2.2 m/s
  mass density: 1158.26 ± 0.16 kg/m3
313.15 K, x1 = 0.6157
  speed of sound: 1594 ± 2.2 m/s
  mass density: 1163.8 ± 0.15 kg/m3
313.15 K, x1 = 0.7042
  speed of sound: 1596.4 ± 2.1 m/s
  mass density: 1169.14 ± 0.15 kg/m3
313.15 K, x1 = 0.8028
  speed of sound: 1598.9 ± 2.1 m/s
  mass density: 1174.46 ± 0.15 kg/m3
313.15 K, x1 = 0.9065
  speed of sound: 1602 ± 2.1 m/s
  mass density: 1179.21 ± 0.15 kg/m3
318.15 K, x1 = 0.0698
  speed of sound: 1602.5 ± 2.2 m/s
  mass density: 1116.33 ± 0.16 kg/m3
318.15 K, x1 = 0.1114
  speed of sound: 1596.2 ± 2.2 m/s
  mass density: 1125.84 ± 0.17 kg/m3
318.15 K, x1 = 0.219
  speed of sound: 1587.9 ± 2.2 m/s
  mass density: 1140.07 ± 0.17 kg/m3
318.15 K, x1 = 0.3157
  speed of sound: 1584 ± 2.2 m/s
  mass density: 1147.06 ± 0.16 kg/m3
318.15 K, x1 = 0.4167
  speed of sound: 1581.2 ± 2.2 m/s
  mass density: 1150.9 ± 0.16 kg/m3
318.15 K, x1 = 0.5153
  speed of sound: 1581.6 ± 2.2 m/s
  mass density: 1154.9 ± 0.15 kg/m3
318.15 K, x1 = 0.6157
  speed of sound: 1582.8 ± 2.1 m/s
  mass density: 1160.61 ± 0.15 kg/m3
318.15 K, x1 = 0.7042
  speed of sound: 1585.1 ± 2.1 m/s
  mass density: 1165.8 ± 0.15 kg/m3
318.15 K, x1 = 0.8028
  speed of sound: 1587.7 ± 2.1 m/s
  mass density: 1171.11 ± 0.15 kg/m3
318.15 K, x1 = 0.9065
  speed of sound: 1590.8 ± 2.1 m/s
  mass density: 1175.65 ± 0.15 kg/m3
